From a melting point compilation (Tetko et al.; mined from patent text by program, amines drawn as free bases though some values may be those of a salt) come the findings set out here.

The term melting point denotes the temperature of the solid-liquid transition.

`CCCCCC1CCC(CCc2ccc(-c3ncc(O)cn3)c(F)c2F)CC1` (stereo unspecified) yielded a melting point of 157 °C. Next, `CCN1CCN(c2ccc(Br)nc2)CC1`: 30 to 31 °C. For `COc1ccc(C2=NN(CCCO)C(=O)[C@H]3CCCC[C@@H]23)cc1OC` (relative stereo) the value was 94 to 97 °C; for `Cc1cc(Oc2cccc([N+](=O)[O-])c2N(C)C(=O)OC(C)(C)C)cc(C)c1NC(=O)OC(C)(C)C`, 154 to 156 °C; for `CC(C)Cn1c(=O)n(C)c(=O)c2c(C#CCCCO)n(Cc3cccc4ccccc34)cc21`, 176 to 177 °C. Next, `O=c1ccn(-c2cc3[nH]c(=O)c(=O)[nH]c3cc2F)cc1`: over 300 °C; `CN(C)C1CCc2[nH]c3cc(O)ccc3c2C1` (stereo unspecified): 286 to 288 °C. Take `CN(C)CC(C)(C)Oc1ccc(Nc2cc(-c3cccc(-n4ncc5cc(C(C)(C)C)cc(F)c5c4=O)c3CO)nn(C)c2=O)nc1`: the melting point was 136 to 144 °C. Next, `Cc1cc(N2CCc3ccccc32)nc(N)n1`: 242 to 244 °C; `CC(=O)Nc1ccc(Cl)c2c1C(=O)CCN2C(C)=O`: 175 to 177 °C. For `C/C(NCc1ccccc1)=C(\C#N)C(N)=S` the value was 157 to 159 °C; for `O=C1CC[C@@H](COc2cccnc2)N1`, 121 to 122 °C; for `CCOC(=O)c1[nH]c(C)c(CC)c1CC`, 76 to 77 °C. Next, `Brc1ccc2c(Br)c3cc(Br)ccc3c(Br)c2c1`: 293 to 296 °C; `C#CCN(Cc1cc2c(=O)[nH]c(C)nc2cc1Br)c1ccc(C(=O)NC(CO)c2cccc([N+](=O)[O-])c2)cc1` (stereo unspecified): 221 to 232 °C; `COC(=O)Cc1c(O)c(C)nn1C`: 119 to 120 °C.

Regarding `CC(N)=CC(=O)c1ccc(Cl)cc1`, the melting point was in the range of 126 to 130 °C. For `CCOC(=O)C(=CNNc1c(Cl)cc(Cl)cc1Cl)C(=O)OCC` the value was 92 °C; for `Cc1c(CNc2cc(CO)cc(CO)c2)nnn1Cc1ccc(Cl)c(Cl)c1`, 120 °C; for `CCC(=O)NC1CCc2ccccc2C1` (stereo unspecified), 99 to 101 °C. Next, `CC(C)(C)OC(=O)Nc1cc(OC(C)(C)C)c(-c2ccc(F)cc2)cc1N`: 139 °C; `COC(=O)CNC(=O)c1ccc(NS(=O)(=O)c2ccc(F)cc2)cn1`: 146 to 148 °C.

`O=C(O)CN[C@H]1C[C@H](O)CO1` (relative stereo) returned a melting point of 53 to 56 °C.

`O=C(Nc1nc(-c2cc(Cl)nc(Cl)c2)cs1)NS(=O)(=O)c1ccccc1C(F)(F)F`: the melting point is over 280 °C. On to `CN(C)C1(c2ccccn2)CCC(NCCc2c[nH]c3ccccc23)CC1` (stereo unspecified), for which the melting point lay within 150 to 152 °C. For `CCN(CC)CCOc1ccc(C2c3cc(OC)ccc3-c3ccc4ccccc4c32)cc1` (stereo unspecified) the value was 109 to 115 °C. Next, `CCOC(=O)C1=C(C)NC(CSCCc2ccccc2)=C(C(=O)OCC)C1c1cccc([N+](=O)[O-])c1` (stereo unspecified): 73 to 75 °C; `CCCCNC(=NC#N)Nc1cccnc1`: 96 to 97 °C.

On to `CCCc1c(OCC(O)COc2ccc3c(=O)cc(CCC(=O)OCC)oc3c2CCC)ccc(C(C)=O)c1O` (stereo unspecified), for which the melting point was in the range of 137 to 138 °C. `COC(=O)c1cc2sccc2s1`: the melting point lay within 96 to 97 °C. For `O=C(C=Cc1ccccc1)C(Cc1ccccc1)(Cc1ccccc1)C(=O)C=Cc1ccccc1` the value was 182 to 183 °C; for `O=C1Nc2ccccc2C1CCCCN1CC=C(c2ccc(Cl)cc2)CC1` (stereo unspecified), 122 to 124 °C. On to `COCCOc1ccc(CCCNS(=O)(=O)c2ccc(Cl)cc2)c(Oc2ncc(C(F)(F)F)cc2Cl)c1`, for which the melting point lay in the range of 111 to 113 °C. For `CCCCCCCCCCCCc1cc2ccc(C(=O)OCC)cc2[nH]1` the value was 83 to 86 °C. Molecule `COC(=O)c1c(C)oc(C)c1-c1ccc(F)cc1` gave a melting point of 34 to 35 °C. For `Cc1cccc(COc2cccnc2N)c1F` the value was 115 to 118 °C; for `COCOc1cc(Cl)ccc1-c1cc(-c2cccc(NC(=O)Cn3ccnc3)c2)c(C#N)c(NC(=O)c2ccco2)n1`, 157 to 160 °C; for `CC(=O)c1ccc(C#CCOC2CCC3C4CCC5CC(C)(O)CCC5(C)C4CCC23C)cc1` (stereo unspecified), 52 to 55 °C. Molecule `CS(=O)(=O)c1ccc(C2=C(c3ccccc3)C(=O)N(C3CC3)C2)cc1` returned a melting point of 144 to 146 °C.

In the case of `CS(=O)(=O)c1cc(N)ccc1OC(F)(F)F`, the melting point lay within 106 to 109 °C. The molecule `COc1ccc(F)cc1C(=O)NC1COc2cc(OC)c(S(N)(=O)=O)cc2C1` (stereo unspecified) gave a melting point of 209 to 210 °C. Next, `COC(=O)C1=C(C(=O)OC)C(N)C2=C(c3cc4ccccc4s3)N=NC2=N1` (stereo unspecified): 218 to 220 °C; `CCCCCOc1cc(C(=O)O)c2c(c1)C(=O)CC2`: 165 to 166 °C. For `CC(=O)NC1=NN(c2ccc(F)cc2)C(C)C1` (stereo unspecified) the value was 136 to 138 °C.

For the molecule `COc1ccc(C=O)cc1OCc1nc(-c2ccco2)oc1C`, the melting point lay in the range of 125 to 126 °C.

Turning to `CC(C)(C)c1ncc(O)cn1`, the melting point came to 132 °C. `Oc1ccc2c(c1O)OCC(c1ccccc1)C2` (stereo unspecified) returned a melting point of 138 °C. With `Nc1nc(S(N)(=O)=O)c2[nH]cnc2n1`, the melting point is over 250 °C.

`Cn1c(NC2CCNC(Cc3ccccc3)C2)nc2ccccc21` (stereo unspecified): the melting point is 86.3 °C.

In turn, `FC(F)(F)c1nc(Cl)c(-c2ccccc2)c(-c2ccccc2)n1` yielded a melting point of 105 to 107 °C. For `CC[C@@H]1CN(c2c(F)c(N)c3c(=O)c(C(=O)O)cn(C4CC4)c3c2F)C[C@H]1N` (relative stereo) the value was 195 to 196 °C; for `Cc1ccc(N)c(C(=O)NCCC(C)n2ccnc2)c1` (stereo unspecified), 128 to 130 °C; for `O=C1NC(=O)C(c2c[nH]c3ccccc23)=C1c1c[nH]c2ccccc12`, 234 °C.

As for `COc1ccc(C(=O)P2(=O)Oc3ccccc3-c3ccccc32)c(OC)c1` (stereo unspecified), the melting point was 112 to 115 °C.

As to `CS(=O)(=O)NC1CCN(c2nc(N)nc(-c3cc(Cl)ccc3Cl)n2)C1` (stereo unspecified), the melting point was in the range of 102 to 107 °C. Next, `COc1cc2oc(=O)c3c(c2cc1OC)CCNC3`: 186 to 188 °C; `Cn1c(=NN)sc2ccccc21`: 134 °C; `COc1cc(CON=C(CCC(=O)O)c2ccccc2)cc(OC)c1OCc1nc(-c2ccccc2)oc1C`: 89 to 90 °C.

Consider `CN1Cc2c(Br)ncn2-c2cccc(Cl)c2C1=O`, for which the melting point is 178 to 179 °C. As for `CCOc1ccc2c(c1)CC(=O)N2C1CCCCO1` (stereo unspecified), the melting point is 108 to 110 °C.

In turn, `COC(=O)COc1cccc2c1c(C(=O)C(N)=O)c(C)n2Cc1cccc2ccccc12` showed a melting point of 188 to 190 °C. For `Cc1cc(C(=O)N2Cc3cccn3Cc3ccccc32)ccc1-c1ccncc1` the value was 208 to 210 °C. Next, `CCOC(=O)CCC(=O)c1cccc(C(=O)c2ccc(Cl)cc2)c1N`: 112 to 115 °C. Next, `CCOCCn1cc2c(C3C(=O)Nc4ccc(Br)cc43)nc(NCCN3CCOCC3)nc2n1` (stereo unspecified): 276 to 278 °C; `CC(=O)N1CCN(Cc2cnc(-c3cc4c(C)ccc(N(C)S(=O)(=O)c5cccs5)c4[nH]3)s2)CC1`: 171 to 172 °C; `CN1CCCc2c(NC(=NC#N)NC(NC(=O)Cc3ccc(Cl)cc3)C(C)(C)C)cccc21` (stereo unspecified): 114 to 117 °C. The molecule `COc1cccc2c(CN3CC=C(CCc4ccccc4)CC3)c[nH]c12` returned a melting point of 131 to 133 °C. `CCOC(=O)COc1ccc(Oc2nc(Cl)cc3ccccc23)cc1` yielded a melting point of 97 °C. For `COc1ccc(N)cc1C12CC3CC(CC(C3)C1)C2` the value was 140 to 141 °C; for `O=C(O)CCCc1ccc(-c2ccc(F)cc2Cl)cc1`, 81 to 82 °C; for `N#Cc1c(N2CCCCC2)cc(-c2cccs2)c2c1-c1ccccc1C2`, 152 to 154 °C. Next, `CCCCCCCCCCCCc1nc(NC(=O)Nc2c(C(C)C)cccc2C(C)C)n[nH]1`: 154 to 164 °C. For `COc1ccc2cc(C(Br)Br)ccc2c1` the value was 116 °C; for `C=CCc1cc2c(c(CC=C)c1O)N(CC=C)C(=O)CO2`, 71 to 73 °C. Consider `COC(=O)C(C)N(C(=O)CF)c1c(C)cccc1Cl` (stereo unspecified), for which the melting point is 101 to 103 °C. `CS(=O)(=O)Nc1ccc(NS(C)(=O)=O)c(S)c1` came in with a melting point of 174 to 176 °C. Next, `C#CCN1CCN(C2Cc3ccc(C)cc3Sc3ccc(F)cc32)CC1` (stereo unspecified): 168 to 174 °C.

Molecule `O=C(c1cc2cc([N+](=O)[O-])ccc2o1)C12CC3CC(CC(C3)C1)C2` gave a melting point of 151 to 153 °C.

With `O=C1c2cc(F)ccc2OC[C@H]2CCCN12`, the melting point was in the range of 80 to 82 °C. `CC(C)(C)[Si](C)(C)OCCCC(=O)c1cc(-c2ccc(S(C)(=O)=O)cc2)n(C2CCCCC2)n1` registered a melting point of 131 to 133 °C. In turn, `O=C1C[C@@H]2CCCC[C@@H]2N1O` (relative stereo) came in with a melting point of 85 to 86 °C.

The molecule `N#Cc1cnc2c(oc3ccccc32)c1Nc1cccc(Br)c1` showed a melting point of 242 to 245 °C. `Cn1cc(O)c(=O)c2ccc(C#N)cc21` came in with a melting point of 305 °C. For the molecule `OCc1cn(-c2cccc(SC(F)(F)F)c2)cn1`, the melting point lay within 73 to 75 °C. For `CCOC(=O)c1cn(CC2CC2)c2cc(-n3cccc3)c(F)cc2c1=O` the value was 125 to 127 °C; for `CCOC(=O)c1c(C)nc2c(c1N)c1c(n2Cc2ccc(OC)cc2)CCCC1`, 108 to 110 °C; for `C=CCOP(=O)(OCC=C)C(N)=O`, 91 to 94 °C. For `Cc1c(C(=O)O)cnn1-c1c(Cl)cc(Cl)cc1Cl` the value was 184 to 186 °C.

`CCOC(=O)N1Cc2c(n(-c3ccc(F)cc3)c3ccc(F)cc23)C1` showed a melting point of 143 to 145 °C. `CCCCCCCc1ccc(NC2=NCCS2)cc1` came in with a melting point of 81 to 82 °C.

`CCCCC(NS(=O)(=O)c1ccc(Cl)cc1)C(=S)Nc1ccc(CCC(=O)OC)cc1` (racemic) registered a melting point of 87 to 89 °C.
